US20240299504A1, “COMPOSITIONS AND METHODS FOR TREATING ALZHEIMERS DISEASE” (priority 2023, published 2024)

Tested on: 5×FAD mice
Experiment: Y-maze test
Assay type: in vivo, mouse
Method: Parathyroid hormone (human) was purchased from TOCRIS Bioscience (Cat #3011/1, Abingdon, United Kingdom). WT or 5×FAD mice (both male and female) were treated with PTH1-34 intermittently [once daily injection of hPTH1-34 (50 μg/Kg) or vehicle (0.9% sodium chloride) (as a control) by subcutaneous injection, starting at 2-MO, 5 days per week] as described previously. Mice were then subjected to behavioral tests and sacrificed for examinations of their bone and brain phenotypes at the indicated ages.
Mice (female and male) at the age of ˜5-MO were subjected to behavioral studies. The experimental procedures are described as previously. […] The total arm entries and the number of tri-ads were recorded to quantify the percentage of spontaneous alternation. For novel object recognition (NOR), which tests mouse's memory ability for a novel object, 20 min were recorded to analyze the time to explore the old object vs. the new object of each mouse. […] During test trials, one of the objects was replaced with a new object and mice were free to explore for another 20 min, and the time spent exploring the new object and the old object was recorded. The discrimination index is quantified as the novelty object preference, which is the time spent exploring the new object minus the time exploring the old object over the total exploration time.

## CC[C@H](C)[C@H](NC(=O)[C@H](CCC(=O)O)NC(=O)[C@H](CO)NC(=O)[C@@H](NC(=O)[C@@H](N)CO)C(C)C)C(=O)N[C@@H](CCC(N)=O)C(=O)N[C@@H](CC(C)C)C(=O)N[C@@H](CCSC)C(=O)N[C@@H](Cc1cnc[nH]1)C(=O)N[C@@H](CC(N)=O)C(=O)N[C@@H](CC(C)C)C(=O)NCC(=O)N[C@@H](CCCCN)C(=O)N[C@@H](Cc1cnc[nH]1)C(=O)N[C@@H](CC(C)C)C(=O)N[C@@H](CC(N)=O)C(=O)N[C@@H](CO)C(=O)N[C@@H](CCSC)C(=O)N[C@@H](CCC(=O)O)C(=O)N[C@@H](CCCN=C(N)N)C(=O)N[C@H](C(=O)N[C@@H](CCC(=O)O)C(=O)N[C@@H](Cc1c[nH]c2ccccc12)C(=O)N[C@@H](CC(C)C)C(=O)N[C@@H](CCCN=C(N)N)C(=O)N[C@@H](CCCCN)C(=O)N[C@@H](CCCCN)C(=O)N[C@@H](CC(C)C)C(=O)N[C@@H](CCC(N)=O)C(=O)N[C@@H](CC(=O)O)C(=O)N[C@H](C(=O)N[C@@H](Cc1cnc[nH]1)C(=O)N[C@@H](CC(N)=O)C(=O)N[C@@H](Cc1ccccc1)C(=O)O)C(C)C)C(C)C [PTH1-34]
5×FAD female mice ~5-MO vs Veh-treated 5×FAD female
  Y maze spontaneous alternation: an increase in spontaneous alternation
5×FAD male mice ~5-MO vs Veh
  Y maze spontaneous alternation: positive effect on the spontaneous alternation
